Read-outs that look alike come from different tables or passages of the source.
Tested on: zebrafish embryos
Assay type: in vivo
Details: for Mild % / Mild dorsalization, number of embryos / Moderate % / Moderate dorsalization, number of embryos / Normal % / Normal, number of embryos / Severe % / Severe dorsalization, number of embryos / % Mild / % Moderate-Severe / Mild, number of embryos / Moderate-Severe, number of embryos / Total % Dorsalized: scored at 48 hpf
[1] = 10 μM, continuous exposure from 2 hpf
[2] = 10 μM, continuous exposure from 4 hpf
[3] = 10 μM, continuous exposure from 6 hpf
[4] = 10 μM, continuous exposure from 8 hpf
[5] = 10 μM, continuous exposure from 10 hpf
[6] = 10 μM, interval exposure 2-4 hpf
[7] = 10 μM, interval exposure 2-6 hpf
[8] = 10 μM, interval exposure 2-8 hpf
[9] = 10 μM, interval exposure 4-8 hpf
[10] = 10 μM, interval exposure 6-8 hpf
[11] = dorsomorphin 10 μM, treatment at 3 hpf

c1cc(-c2cnn3cc(-c4ccc(OCCN5CCCCC5)cc4)cnc23)ccn1 [Compound C/Dorsomorphin]
toxicity (10 μM): No toxicity was observed | Mild % [1]: 0% | Mild dorsalization, number of embryos [1]: 0 | Moderate % [1]: 0% | Moderate dorsalization, number of embryos [1]: 0 | Normal % [1]: 0% | Normal, number of embryos [1]: 0 | Severe % [1]: 100% | Severe dorsalization, number of embryos [1]: 20 | Mild % [2]: 0% | Mild dorsalization, number of embryos [2]: 0 | Moderate % [2]: 100% | Moderate dorsalization, number of embryos [2]: 19 | Normal % [2]: 0% | Normal, number of embryos [2]: 0 | Severe % [2]: 0% | Severe dorsalization, number of embryos [2]: 0 | Mild % [3]: 22% | Mild dorsalization, number of embryos [3]: 4 | Moderate % [3]: 78% | Moderate dorsalization, number of embryos [3]: 14 | Normal % [3]: 0% | Normal, number of embryos [3]: 0 | Severe % [3]: 0% | Severe dorsalization, number of embryos [3]: 0 | Mild % [4]: 85% | Mild dorsalization, number of embryos [4]: 17 | Moderate dorsalization, number of embryos [4]: 0 | Normal, number of embryos [4]: 3 | Severe % [4]: 0% | Severe dorsalization, number of embryos [4]: 0 | Mild % [5]: 0% | Mild dorsalization, number of embryos [5]: 0 | Moderate % [5]: 0% | Moderate dorsalization, number of embryos [5]: 0 | Normal % [5]: 100% | Normal, number of embryos [5]: 20 | Severe % [5]: 0% | Severe dorsalization, number of embryos [5]: 0 | dorsalization phenotype (10 μM, continuous from 2 hpf): severe dorsalization with high penetrance | dorsalization phenotype (10 μM, exposure from 4-8 and 6-8 hpf): mild to moderate dorsalization | Mild % [6]: 10% | Mild dorsalization, number of embryos [6]: 2 | Moderate % [6]: 90% | Moderate dorsalization, number of embryos [6]: 18 | Normal % [6]: 0% | Normal, number of embryos [6]: 0 | Severe dorsalization, number of embryos [6]: 0 | Mild % [7]: 17% | Mild dorsalization, number of embryos [7]: 3 | Moderate % [7]: 44% | Moderate dorsalization, number of embryos [7]: 8 | Normal % [7]: 0% | Normal, number of embryos [7]: 0 | Severe % [7]: 39% | Severe dorsalization, number of embryos [7]: 7 | Mild % [8]: 0% | Mild dorsalization, number of embryos [8]: 0 | Moderate % [8]: 0% | Moderate dorsalization, number of embryos [8]: 0 | Normal % [8]: 0% | Normal, number of embryos [8]: 0 | Severe % [8]: 100% | Severe dorsalization, number of embryos [8]: 20 | Mild % [9]: 65% | Mild dorsalization, number of embryos [9]: 15 | Moderate % [9]: 35% | Normal % [9]: 0% | Normal, number of embryos [9]: 0 | Severe % [9]: 0% | Severe dorsalization, number of embryos [9]: 0 | Mild % [10]: 95% | Mild dorsalization, number of embryos [10]: 19 | Moderate % [10]: 5% | Moderate dorsalization, number of embryos [10]: 1 | Normal % [10]: 0% | Normal, number of embryos [10]: 0 | Severe % [10]: 0% | Severe dorsalization, number of embryos [10]: 0 | dorsalization phenotype (10 μM, treated at 2-4 hpf): severe dorsalization defects | dorsalization phenotype (10 μM, treated at 6-8 hpf): mild dorsalization | dorsalization phenotype (10 μM, treatment at 10 hpf and beyond): did not induce dorsalization | nonspecific toxicity (5-20 uM): absence of other nonspecific toxicity | dorsalization phenotype (5 to 10 μM from 3 hpf): progressively more severe dorsalization in a progressively higher percentage of embryos | dorsalization phenotype (10 (unit not given) from 3 hpf): moderate or severe dorsalization in nearly all embryos examined | % Mild (DM 0.2 μM from 3 hpf): 0% | % Moderate-Severe (DM 0.2 μM from 3 hpf): 0% | Mild, number of embryos (DM 0.2 μM from 3 hpf): 0 | Moderate-Severe, number of embryos (DM 0.2 μM from 3 hpf): 0 | Normal, number of embryos (DM 0.2 μM from 3 hpf): 60 | Total % Dorsalized (DM 0.2 μM from 3 hpf): 0% | % Mild (DM 0.5 μM from 3 hpf): 0% | % Moderate-Severe (DM 0.5 μM from 3 hpf): 0% | Mild, number of embryos (DM 0.5 μM from 3 hpf): 0 | Moderate-Severe, number of embryos (DM 0.5 μM from 3 hpf): 0 | Normal, number of embryos (DM 0.5 μM from 3 hpf): 59 | Total % Dorsalized (DM 0.5 μM from 3 hpf): 0% | % Mild (DM 1 μM from 3 hpf): 0% | % Moderate-Severe (DM 1 μM from 3 hpf): 0% | Mild, number of embryos (DM 1 μM from 3 hpf): 0 | Moderate-Severe, number of embryos (DM 1 μM from 3 hpf): 0 | Normal, number of embryos (DM 1 μM from 3 hpf): 60 | Total % Dorsalized (DM 1 μM from 3 hpf): 0% | % Mild (DM 2 μM from 3 hpf): 0% | % Moderate-Severe (DM 2 μM from 3 hpf): 0% | Mild, number of embryos (DM 2 μM from 3 hpf): 0 | Normal, number of embryos (DM 2 μM from 3 hpf): 60 | Total % Dorsalized (DM 2 μM from 3 hpf): 0% | % Mild (DM 5 μM from 3 hpf): 19% | % Moderate-Severe (DM 5 μM from 3 hpf): 0% | Mild, number of embryos (DM 5 μM from 3 hpf): 11 | Moderate-Severe, number of embryos (DM 5 μM from 3 hpf): 0 | Normal, number of embryos (DM 5 μM from 3 hpf): 48 | Total % Dorsalized (DM 5 μM from 3 hpf): 19% | % Mild (DM 7.5 μM from 3 hpf): 58% | % Moderate-Severe (DM 7.5 μM from 3 hpf): 42% | Mild, number of embryos (DM 7.5 μM from 3 hpf): 35 | Moderate-Severe, number of embryos (DM 7.5 μM from 3 hpf): 25 | Normal, number of embryos (DM 7.5 μM from 3 hpf): 0 | Total % Dorsalized (DM 7.5 μM from 3 hpf): 100% | % Mild (DM 10 μM from 3 hpf): 3% | % Moderate-Severe (DM 10 μM from 3 hpf): 98% | Mild, number of embryos (DM 10 μM from 3 hpf): 1 | Moderate-Severe, number of embryos (DM 10 μM from 3 hpf): 39 | Normal, number of embryos (DM 10 μM from 3 hpf): 0 | Total % Dorsalized (DM 10 μM from 3 hpf): 100% | % Dorsalized [11]: 100% | Dorsalized, number of embryos [11]: 26 | Early lethality, number of embryos [11]: 3 | Total survivors [11]: 26 | dorsalization and toxicity (same conditions as C75 (3 hpf)): induced dorsalization with high penetrance and minimal toxicity | dorsalization phenotype (≦2 μM from 3 hpf): did not elicit dorsalization | cyclopia (phenotype of defective TGF-β signaling) (≧5 μM at ≦8 hpf): did not result in cyclopia

From patent US20100093760A1, “METHODS FOR IDENTIFYING COMPOUNDS THAT MODULATE CELL SIGNALING AND METHODS EMPLOYING SUCH COMPOUNDS” (The General Hospital Corporation, priority 2006, published 2010)
